These results are taken from patent publication US20230265116A1, “DEGRADATION OF (EGFR) BY CONJUGATION OF EGFR INHIBITORS WITH E3 LIGASE LIGAND AND METHODS OF USE” (BEIGENE, LTD., priority 2020, published 2023).

Molecules are shown by their SMILES. Like-named read-outs stand apart in the source and are kept apart here.

For assay [1], the system named is EGFR Del19/T790M/C797S (H1975-clone #28). The experiment in a line: EGFR degradation HTRF assay, H1975-clone #28 DTC cells. The format is cell-based. An outline of the steps: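 Lentiviral Del19/T790M/C797S (clone #28) or Del19/C797S (clone #23) EGFR expressed in H1975 with endogenous EGFR knocked out. Cells treated 16 h, 37 °C, 8 doses, 5-fold from 10 uM top, 0.2% DMSO; EGFR read by HTRF after lysis. Degradation % vs DMSO control; DC50, Dmax from four-parameter fit.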

In assay [2] the target is T1, EGFR L858R/T790M/C797S (BaF3-LTC cells) (Homo sapiens, UniProt P00533, C797S/L858R/T790M).
T1 construct: expressed in transfected cells; host or cells: BaF3
T1 sequence (P00533 25-1210 T790M/C797S/L858R): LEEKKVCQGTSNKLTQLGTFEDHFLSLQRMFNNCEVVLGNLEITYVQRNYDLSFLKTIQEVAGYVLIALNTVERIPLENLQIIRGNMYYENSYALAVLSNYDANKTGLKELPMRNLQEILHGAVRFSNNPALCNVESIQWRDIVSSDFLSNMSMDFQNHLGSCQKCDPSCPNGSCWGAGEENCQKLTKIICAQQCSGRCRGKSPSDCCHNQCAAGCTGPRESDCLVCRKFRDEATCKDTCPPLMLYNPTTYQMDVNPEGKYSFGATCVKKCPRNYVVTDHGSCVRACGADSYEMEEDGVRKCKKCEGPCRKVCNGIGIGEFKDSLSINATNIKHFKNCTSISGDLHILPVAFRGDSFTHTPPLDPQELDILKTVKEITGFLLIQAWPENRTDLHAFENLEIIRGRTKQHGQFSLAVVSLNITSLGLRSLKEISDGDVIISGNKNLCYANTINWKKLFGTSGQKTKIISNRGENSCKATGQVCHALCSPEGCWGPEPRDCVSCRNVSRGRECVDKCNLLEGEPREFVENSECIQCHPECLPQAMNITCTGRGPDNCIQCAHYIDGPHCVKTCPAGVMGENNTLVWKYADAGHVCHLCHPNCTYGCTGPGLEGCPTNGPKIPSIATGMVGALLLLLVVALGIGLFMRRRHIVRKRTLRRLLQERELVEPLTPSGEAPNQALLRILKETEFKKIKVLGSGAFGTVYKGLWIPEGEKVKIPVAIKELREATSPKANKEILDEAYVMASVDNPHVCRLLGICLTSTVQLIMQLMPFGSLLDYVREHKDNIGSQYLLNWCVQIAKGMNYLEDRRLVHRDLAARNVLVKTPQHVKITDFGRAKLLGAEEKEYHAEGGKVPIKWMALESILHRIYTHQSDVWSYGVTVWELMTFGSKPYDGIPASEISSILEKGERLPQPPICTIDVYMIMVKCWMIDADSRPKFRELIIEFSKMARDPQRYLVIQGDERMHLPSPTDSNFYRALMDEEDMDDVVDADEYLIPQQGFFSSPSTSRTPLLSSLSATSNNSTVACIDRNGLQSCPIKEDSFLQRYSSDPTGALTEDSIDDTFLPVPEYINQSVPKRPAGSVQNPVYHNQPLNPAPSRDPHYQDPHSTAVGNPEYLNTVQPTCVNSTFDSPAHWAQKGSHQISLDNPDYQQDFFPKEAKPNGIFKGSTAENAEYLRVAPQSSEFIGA
The experiment in a line: EGFR degradation HTRF assay, BaF3-LTC cells. The format is cell-based. An outline of the steps:
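EGFR remaining after a 16 h, 37 °C exposure (8 doses, 5-fold steps from 10 uM final, 0.2% DMSO) was quantified by HTRF antibodies in cell lysate. Percent inhibition relative to DMSO control was fitted by four-parameter logistic to give DC50; Dmax denotes maximal degradation.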
(Time-resolved FRET reads energy transfer from a long-lived donor to a nearby acceptor.)

Setting [3] is: H1975 # 28 DTC cells; EGFR degradation, IC50 (DC50) from curve fit; read-out: DC50(nM) H1975 # 28 DTC.
[4] abbreviates: H1975 # 28 DTC cells; maximum percentage of inhibition (degradation).
Setting [5] is: BaF3-LTC cells; EGFR degradation, IC50 (DC50) from curve fit; read-out: DC50(nM) BaF3-LTC.
Where [6] appears, read: BaF3-LTC cells; maximum percentage of inhibition (degradation); read-out: Dmax (%) BaF3-LTC.

One may read the DC50 as the concentration giving 50% degradation. One may read the Dmax as the greatest extent of degradation seen. In the case of `CCc1ccc2c(P(C)(C)=O)c(Nc3nc(Nc4cc(CC)c(N5CCC(N6CCN(C(=O)Cc7c(C)ccc8c7C(C)(C)C(=O)N8C7CCC(=O)NC7=O)CC6)CC5)cc4OC)ncc3Br)ccc2n1` (centres unmarked) [Example 658, 3-(4-(2-(4-(1-(4-((5-bromo-4-((5-(dimethylphosphoryl)-2-ethylquinolin-6-yl)amino)pyrimidin-2-yl)amino)-2-ethyl-5-methoxyphenyl)piperidin-4-yl)piperazin-1-yl)-2-oxoethyl)-3,3,5-trimethyl-2-oxoindolin-1-yl)piperidine-2,6-dione], the figures for the DC50 in assay [1] (setting [3]) and in assay [2] (setting [5]) were 0.59 nM and 4.46 nM, respectively. Also, the “Dmax (%) H1975 # 28 DTC” value in assay [1] (setting [4]) was 71.03 7%. The Dmax in assay [2] (setting [6]) came to 84.2%.

In the case of `Cc1ccc2c(P(C)(C)=O)c(Nc3nc(Nc4cc(C)c(N5CCC(N6CCN(CCc7cccc8c7n(C)c(=O)n8C7CCC(=O)NC7=O)CC6)CC5)cc4OC4CC4)ncc3Br)ccc2n1` (centres unmarked) [Example 602, 3-(4-(2-(4-(1-(4-((5-bromo-4-((5-(dimethylphosphoryl)-2-methylquinolin-6-yl)amino)pyrimidin-2-yl)amino)-5-cyclopropoxy-2-methylphenyl)piperidin-4-yl)piperazin-1-yl)ethyl)-3-methyl-2-oxo-2,3-dihydro-1H-benzo[d]imidazol-1-yl)piperidine-2,6-dione], the DC50 in assay [1] (setting [3]) worked out at 0.913 nM; in assay [2] (setting [5]) it was 3.66 nM. The “Dmax (%) H1975 # 28 DTC” value in assay [1] (setting [4]) was 77.98%. In assay [2] (setting [6]), the Dmax worked out at 93%.

In the case of `CCc1ccc2c(P(C)(C)=O)c(Nc3nc(Nc4cc(C5CC5)c(N5CCC(N6CCN(CCc7cc(F)c([C@H]8CCC(=O)NC8=O)c(F)c7)CC6)CC5)cc4OC)ncc3Br)ccc2n1` [Example 550, (R)-3-(4-(2-(4-(1-(4-((5-bromo-4-((5-(dimethylphosphoryl)-2-ethylquinolin-6-yl)amino)pyrimidin-2-yl)amino)-2-cyclopropyl-5-methoxyphenyl)piperidin-4-yl)piperazin-1-yl)ethyl)-2,6-difluorophenyl)piperidine-2,6-dione], the DC50 turned out to be 0.707 nM in assay [1] (setting [3]) and 8.12 nM in assay [2] (setting [5]). Also, the “Dmax (%) H1975 # 28 DTC” value in assay [1] (setting [4]) was 87.71%. The Dmax in assay [2] (setting [6]) amounted to 85.9%.

With `CCOc1cc(N2CCC(N3CCN(C(=O)[C@H]4CN(c5cc(F)c([C@H]6CCC(=O)NC6=O)c(F)c5)CC4(C)C)CC3)CC2)c(CC)cc1Nc1ncc(Br)c(Nc2ccc3nc(C)ccc3c2P(C)(C)=O)n1` [Example 747, (R)-3-(4-((R)-4-(4-(1-(4-((5-bromo-4-((5-(dimethylphosphoryl)-2-methylquinolin-6-yl)amino)pyrimidin-2-yl)amino)-5-ethoxy-2-ethylphenyl)piperidin-4-yl)piperazine-1-carbonyl)-3,3-dimethylpyrrolidin-1-yl)-2,6-difluorophenyl)piperidine-2,6-dione], the DC50 in assay [1] (setting [3]) was 2.91 nM; in assay [2] (setting [5]), 19.8 nM. Besides, the “Dmax (%) H1975 # 28 DTC” value in assay [1] (setting [4]) is reported as 76.51%.

In the case of `CCc1cc(Nc2ncc(Br)c(Nc3ccc4nc(C)ccc4c3P(C)(C)=O)n2)c(OC2CC2)cc1N1CCC(N2CCN(CC3CN(c4cccc5c4oc(=O)n5C4CCC(=O)NC4=O)C3)CC2)CC1` (centres unmarked) [Example 600, 3-(7-(3-((4-(1-(4-((5-bromo-4-((5-(dimethylphosphoryl)-2-methylquinolin-6-yl)amino)pyrimidin-2-yl)amino)-5-cyclopropoxy-2-ethylphenyl)piperidin-4-yl)piperazin-1-yl)methyl)azetidin-1-yl)-2-oxobenzo[d]oxazol-3(2H)-yl)piperidine-2,6-dione], the DC50 in assay [1] (setting [3]) amounted to 1.18 nM; in assay [2] (setting [5]), 4.11 nM. The “Dmax (%) H1975 # 28 DTC” value in assay [1] (setting [4]) is 83.32%. In addition, the Dmax in assay [2] (setting [6]) worked out at 87.4%.

As to `CCOc1cc(N2CCC(N3CCN(CCCCc4cc(F)cc5c4oc(=O)n5C4CCC(=O)NC4=O)CC3)CC2)c(CC)cc1Nc1ncc(Br)c(Nc2ccc3nc(CC)ccc3c2P(C)(C)=O)n1` (centres unmarked) [Example 632, 3-(7-(4-(4-(1-(4-((5-bromo-4-((5-(dimethylphosphoryl)-2-ethylquinolin-6-yl)amino)pyrimidin-2-yl)amino)-5-ethoxy-2-ethylphenyl)piperidin-4-yl)piperazin-1-yl)butyl)-5-fluoro-2-oxobenzo[d]oxazol-3(2H)-yl)piperidine-2,6-dione], the DC50 in assay [1] (setting [3]) turned out to be 2.2 nM; in assay [2] (setting [5]), 14.2 nM. Besides, the “Dmax (%) H1975 # 28 DTC” value in assay [1] (setting [4]) is listed as 81.77%. Also, the Dmax in assay [2] (setting [6]) was determined as 95.1%.

For the molecule `CCOc1cc(N2CCC(N3CCN(C[C@H]4CCN(c5cccc6c5oc(=O)n6C5CCC(=O)NC5=O)C4)CC3)CC2)c(CC)cc1Nc1ncc(Br)c(Nc2ccc3c(=O)n(CC)ncc3c2P(C)(C)=O)n1` (stereo partly drawn) [Example 611, 3-(7-((R)-3-((4-(1-(4-((5-bromo-4-((5-(dimethylphosphoryl)-2-ethyl-1-oxo-1,2-dihydrophthalazin-6-yl)amino)pyrimidin-2-yl)amino)-5-ethoxy-2-ethylphenyl)piperidin-4-yl)piperazin-1-yl)methyl)pyrrolidin-1-yl)-2-oxobenzo[d]oxazol-3(2H)-yl)piperidine-2,6-dione], the DC50 is 5.69 nM in assay [1] (setting [3]) and 83.4 nM in assay [2] (setting [5]). For the same molecule, the “Dmax (%) H1975 # 28 DTC” value in assay [1] (setting [4]) is 70.37%. In addition, the “Dmax (%) BaF3-LTC” value in assay [2] (BaF3-LTC cells; maximum percentage of inhibition (degradation)) is 86.27%.

On to `CCOc1cc(N2CCC(N3CCN(CCCc4cc(F)cc5c4oc(=O)n5C4CCC(=O)NC4=O)CC3)CC2)c(CC)cc1Nc1ncc(Br)c(Nc2cc(F)c3nc(CC)ccc3c2P(C)(C)=O)n1` (centres unmarked) [Example 620, 3-(7-(3-(4-(1-(4-((5-bromo-4-((5-(dimethylphosphoryl)-2-ethyl-8-fluoroquinolin-6-yl)amino)pyrimidin-2-yl)amino)-5-ethoxy-2-ethylphenyl)piperidin-4-yl)piperazin-1-yl)propyl)-5-fluoro-2-oxobenzo[d]oxazol-3(2H)-yl)piperidine-2,6-dione], for which the 50% degradation concentration (DC50) in assay [1] (setting [3]) is 2.04 nM; in assay [2] (setting [5]), 8.28 nM. For the same molecule, the “Dmax (%) H1975 # 28 DTC” value in assay [1] (setting [4]) is given as 78.78%. Besides, the Dmax in assay [2] (setting [6]) was 93.8%.

Turning to `CCOc1cc(N2CCC(N3CCN(CCc4cc(F)c([C@H]5CCC(=O)NC5=O)c(F)c4)CC3)CC2)c(CC)cc1Nc1ncc(Br)c(Nc2cc(F)c3ncc(C)cc3c2P(C)(C)=O)n1` [Example 672, (R)-3-(4-(2-(4-(1-(4-((5-bromo-4-((5-(dimethylphosphoryl)-8-fluoro-3-methylquinolin-6-yl)amino)pyrimidin-2-yl)amino)-5-ethoxy-2-ethylphenyl)piperidin-4-yl)piperazin-1-yl)ethyl)-2,6-difluorophenyl)piperidine-2,6-dione], the DC50 in assay [1] (setting [3]) is 0.723 nM; in assay [2] (setting [5]), 6.6 nM. In addition, in assay [1] (setting [4]), the “Dmax (%) H1975 # 28 DTC” value is recorded as 87.05%. Besides, the Dmax in assay [2] (setting [6]) was found to be 86.9%.

On to `CCOc1cc(N2CCC(N3CCN(CCCc4cccc5c4oc(=O)n5C4CCC(=O)NC4=O)CC3)CC2)c(CC)cc1Nc1ncc(Br)c(Nc2ccc3nc(CC)ncc3c2P(C)(C)=O)n1` (centres unmarked) [Example 615, 3-(7-(3-(4-(1-(4-((5-bromo-4-((5-(dimethylphosphoryl)-2-ethylquinazolin-6-yl)amino)pyrimidin-2-yl)amino)-5-ethoxy-2-ethylphenyl)piperidin-4-yl)piperazin-1-yl)propyl)-2-oxobenzo[d]oxazol-3(2H)-yl)piperidine-2,6-dione], for which, in assay [1] (setting [4]), the “Dmax (%) H1975 # 28 DTC” value worked out at 72.36%. Further, the DC50 turned out to be 0.921 nM in assay [1] (read-out: DC50(nM) H1975 # 28 DTC; H1975 # 28 DTC cells; EGFR degradation, IC50 (DC50) from curve fit) and 7.91 nM in assay [2] (read-out: DC50(nM) BaF3-LTC; BaF3-LTC cells; EGFR degradation, IC50 (DC50) from curve fit). For the same molecule, the Dmax in assay [2] (read-out: Dmax (%) BaF3-LTC, BaF3-LTC cells; maximum percentage of inhibition (degradation)) worked out at 91%.

For the molecule `CCc1ccc2c(P(C)(C)=O)c(Nc3nc(Nc4cc(CC)c(N5CCC(N6CCN(C(=O)C78CCC(Nc9cc(F)c([C@H]%10CCC(=O)NC%10=O)c(F)c9)(CC7)C8)CC6)CC5)cc4OC)ncc3Br)ccc2n1` [Example 663, (R)-3-(4-((4-(4-(1-(4-((5-bromo-4-((5-(dimethylphosphoryl)-2-ethylquinolin-6-yl)amino)pyrimidin-2-yl)amino)-2-ethyl-5-methoxyphenyl)piperidin-4-yl)piperazine-1-carbonyl)bicyclo[2.2.1]heptan-1-yl)amino)-2,6-difluorophenyl)piperidine-2,6-dione], the DC50 in assay [1] (setting [3]) was found to be 1.81 nM; in assay [2] (setting [5]), 3.98 nM. Also, the “Dmax (%) H1975 # 28 DTC” value in assay [1] (setting [4]) came out at 74.11%. In assay [2] (setting [6]), the Dmax was found to be 95.8%.

Turning to `CCOc1cc(N2CCC(N3CCN(CCc4c(F)ccc5c4n(C)c(=O)n5C4CCC(=O)NC4=O)CC3)CC2)c(CC)cc1Nc1ncc(Br)c(Nc2ccc3nc(CC)ccc3c2P(C)(C)=O)n1` (centres unmarked) [Example 648, 3-(4-(2-(4-(1-(4-((5-bromo-4-((5-(dimethylphosphoryl)-2-ethylquinolin-6-yl)amino)pyrimidin-2-yl)amino)-5-ethoxy-2-ethylphenyl)piperidin-4-yl)piperazin-1-yl)ethyl)-5-fluoro-3-methyl-2-oxo-2,3-dihydro-1H-benzo[d]imidazol-1-yl)piperidine-2,6-dione], the DC50 in assay [1] (setting [3]) was determined as 4.01 nM; in assay [2] (setting [5]), 15.3 nM. Further, in assay [1] (setting [4]), the “Dmax (%) H1975 # 28 DTC” value stood at 81.9%. In addition, the Dmax in assay [2] (setting [6]) is 95.8%.
